Reference: US5129937A, “Pyridyloxypyrimidine derivatives, preparation process thereof, and herbicidal compositions containing the same as active ingredients” (Mitsui Toatsu Chemicals Incorporated, priority 1989, dated 1992)

Experiments:
Format in all cases: in vivo
Soybean (Glycine max) [1] = assay: Upland Soil Application Test, crop injury; conditions: 30 g ai/a; soil application before emergence, wettable powder; observed 30 days later
Experimental: (§1) Resin-made 1/2500-are pots were filled with the soil of an upland field. After they were fertilized, soybean, corn and cotton were seeded and 2-3 cm soil covering was applied. Seeds of redroot pigweed, morningglory (Ipomoea purpurea), common lambsquarters, barnyardgrass, green foxtail, large crabgrass, foxtail meadow and johnsongrass had been uniformly mixed with the soil. They were allowed to germinate in a green house. One day later (before emergence of weeds), a wettable powder prepared from a predetermined amount of each test compound in a similar manner to the method described in Formulation Example 1 was diluted with water and then sprayed evenly at an application rate equal to 10 l per are onto the surface of the soil by means of a pressure-operated ULV (ultra low volume) sprayer. Influence to the crops and weeds were observed 30 days later. The results are shown in Table 3, in which the degree of damages of each test plant and the degree of injury to each crop were determined by comparing the air-dried weights of the test plant and crop with those of the corresponding plant and crop in untreated pots and are shown in accordance with the following standard: […]

Corn (Zea maize) [2] = assay: Upland Soil Application Test, crop injury; conditions: 30 g ai/a; soil application before emergence, wettable powder; observed 30 days later
Experimental: as §1

[3] = test system: Cotton (Gossypium indicum); assay: Upland Soil Application Test, crop injury; conditions: 30 g ai/a; soil application before emergence, wettable powder; observed 30 days later
Experimental: as §1

[4] = test system: Bulrush (Scirpus juncoides); assay: Submerged Soil Treatment Test (Growth Stage Treatment); conditions: 30 g ai/a, growth stage treatment (barnyardgrass two-leaf stage), granule, observed 30 days later
Experimental: (§2) 1/5000-are Wagner pots were filled with soil. Seeds or tubers of barnyardgrass, bulrush and Sagittaria pygmaea were seeded or planted under submerged condition. Two pairs of rice seedlings (2-3 leaf stage), which had been reared in advance, were transplanted to each pot and were allowed to grow in a green house. Each pair consisted of two rice seedlings. When the barnyardgrass grew to the two-leaf stage, each pot was treated with a granule which had been prepared by processing a predetermined amount of the test composition in accordance with a similar method to the method described in Formulation Example 9. The state of emergence of weeds and the state of injury of rice were observed 30 days later. In the table, the degrees of damages of the test plants and the degrees of injury of the rice are shown in a similar manner to Example 2.

[5] = test system: Barnyardgrass (Echinochloa crus-galli); assay: as above; conditions: 30 g ai/a, growth stage treatment (barnyardgrass two-leaf stage), granule, observed 30 days later
Experimental: as §2

[6] = test system: Arrowhead sp. (Sagittaria pygmaea); assay: as above; conditions: 30 g ai/a, growth stage treatment (barnyardgrass two-leaf stage), granule, observed 30 days later
Experimental: as §2

Rice (Oryza sativa) [7] = assay: Submerged Soil Treatment Test (Pre-Emergence Treatment), crop injury; conditions: 30 g ai/a, granule, transplanted rice, observed 30 days later
Experimental: as §2, with “allowed to germinate in a” for “allowed to grow in a”, “rice seedlings. On day later (before emergence of weeds), each pot” for “rice seedlings. When the barnyardgrass grew to the two-leaf stage, each pot”, “injury of rice are” for “injury of the rice are”

Rice (Oryza sativa) [8] = assay: Submerged Soil Treatment Test (Growth Stage Treatment), crop injury; conditions: 30 g ai/a, growth stage treatment (barnyardgrass two-leaf stage), granule, transplanted rice, observed 30 days later
Experimental: as §2

[9] = test system: Crabgrass (Digitaria adsendens); assay: Upland Soil Application Test; conditions: 30 g ai/a; soil application before emergence, wettable powder; observed 30 days later
Experimental: as §1

Johnsongrass [10] = assay: Upland Soil Application Test; conditions: 30 g ai/a; soil application before emergence, wettable powder; observed 30 days later
Experimental: as §1

[11] = test system: Foxtail (Setaria viridis); assay: Upland Soil Application Test; conditions: 30 g ai/a; soil application before emergence, wettable powder; observed 30 days later
Experimental: as §1

[12] = test system: Barnyardgrass (Echinochloa crus-galli); assay: Upland Soil Application Test; conditions: 30 g ai/a; soil application before emergence, wettable powder; observed 30 days later
Experimental: as §1

Common lambsquarters [13] = assay: Upland Soil Application Test; conditions: 30 g ai/a; soil application before emergence, wettable powder; observed 30 days later
Experimental: as §1

Foxtail meadow [14] = assay: Upland Soil Application Test; conditions: 30 g ai/a; soil application before emergence, wettable powder; observed 30 days later
Experimental: as §1

Redroot Pigweed [15] = assay: Upland Soil Application Test; conditions: 30 g ai/a; soil application before emergence, wettable powder; observed 30 days later
Experimental: as §1

Soybean (Glycine max) [16] = assay: Upland Foliar Application Test, crop injury; conditions: 30 g ai/a; foliar application at 2-3 leaf stage, emulsion; observed on the 30th day
Text: (§3) Resin-made 1/10000-are pots were filled with the soil of an upland field. Redroot pigweed, morningglory (Ipomoea pupurea), common lambsquarters, foxtail meadow, johnsongrass, barnyardgrass, green foxtail, large crabgrass, soybean, corn and cotton were separately seeded and were allowed to germinate in a green house. When each plant grew to the stage of 2-3 leaves, an emulsion formulated from a predetermined amount of each test compound in a similar manner to the method described in Formulation Example 11 was diluted with water and then sprayed at a predetermined application rate by means of a pressure-operated ULV (ultra low volume) sprayer. The application rate was controlled at 5 l per are. Influence to the crops and weeds were observed on the 30th day after the spray of the herbicides. The results are shown in Table 4 in which the degree of damages of each test plant and the degree of injury to each crop are shown in a similar manner to Test 2.

Corn (Zea maize) [17] = assay: Upland Foliar Application Test, crop injury; conditions: 30 g ai/a; foliar application at 2-3 leaf stage, emulsion; observed on the 30th day
Text: as §3

[18] = test system: Cotton (Gossypium indicum); assay: Upland Foliar Application Test, crop injury; conditions: 30 g ai/a; foliar application at 2-3 leaf stage, emulsion; observed on the 30th day
Text: as §3

[19] = test system: Crabgrass (Digitaria adsendens); assay: Upland Foliar Application Test; conditions: 30 g ai/a; foliar application at 2-3 leaf stage, emulsion; observed on the 30th day
Text: as §3

Johnsongrass [20] = assay: Upland Foliar Application Test; conditions: 30 g ai/a; foliar application at 2-3 leaf stage, emulsion; observed on the 30th day
Text: as §3

[21] = test system: Foxtail (Setaria viridis); assay: Upland Foliar Application Test; conditions: 30 g ai/a; foliar application at 2-3 leaf stage, emulsion; observed on the 30th day
Text: as §3

[22] = test system: Barnyardgrass (Echinochloa crus-galli); assay: Upland Foliar Application Test; conditions: 30 g ai/a; foliar application at 2-3 leaf stage, emulsion; observed on the 30th day
Text: as §3

Common lambsquarters [23] = assay: Upland Foliar Application Test; conditions: 30 g ai/a; foliar application at 2-3 leaf stage, emulsion; observed on the 30th day
Text: as §3

Foxtail meadow [24] = assay: Upland Foliar Application Test; conditions: 30 g ai/a; foliar application at 2-3 leaf stage, emulsion; observed on the 30th day
Text: as §3

Redroot Pigweed [25] = assay: Upland Foliar Application Test; conditions: 30 g ai/a; foliar application at 2-3 leaf stage, emulsion; observed on the 30th day
Text: as §3

Compound	Crop injury Soybean (Glycine max) (Soybean (Glycine max) [1])	Crop injury Corn (Zea maize) (Corn (Zea maize) [2])	Crop injury Cotton (Gossypium indicum) [3]	Herbicidal effects Bulrush (Scirpus juncoides) [4]	Herbicidal effects Barnyardgrass (Echinochloa crus-galli) [5]	Herbicidal effects Arrowhead sp. (Sagittaria pygmaea) [6]	Crop injury Rice (Oryza sativa) (Rice (Oryza sativa) [7])	Crop injury Rice (Oryza sativa) (Rice (Oryza sativa) [8])	Herbicidal effects Crabgrass (Digitaria adsendens) [9]	Herbicidal effects Johnsongrass (Johnsongrass [10])	Herbicidal effects Foxtail (Setaria viridis) [11]	Herbicidal effects Barnyardgrass (Echinochloa crus-galli) [12]	Herbicidal effects Common lambquarters (Common lambsquarters [13])	Herbicidal effects Foxtail meadow (Foxtail meadow [14])	Herbicidal effects Redroot Pigweed (Redroot Pigweed [15])	Crop injury Soybean (Glycine max) (Soybean (Glycine max) [16])	Crop injury Corn (Zea maize) (Corn (Zea maize) [17])	Crop injury Cotton (Gossypium indicum) [18]	Herbicidal effects Crabgrass (Digitaria adsendens) [19]	Herbicidal effects Johnsongrass (Johnsongrass [20])	also measured
COc1cc(OC)nc(Oc2cccnc2C2OCC(C)O2)n1 (stereo not drawn) [Compound No. 7]	0 (91-100 (No damages))	0 (91-100 (No damages))	0 (91-100 (No damages))	4 (6-10 (Severe damages))	5 (0-5 (Death))	4 (6-10 (Severe damages))	0 (91-100 (No damages))	0 (91-100 (No damages))	4 (6-10 (Severe damages))	5 (0-5 (Death))	5 (0-5 (Death))	5 (0-5 (Death))	4 (6-10 (Severe damages))	4 (6-10 (Severe damages))	4 (6-10 (Severe damages))	0 (91-100 (No damages))	0 (91-100 (No damages))	0 (91-100 (No damages))	4 (6-10 (Severe damages))	5 (0-5 (Death))	Herbicidal effects Foxtail (Setaria viridis) [21]: 5 (0-5 (Death)); Herbicidal effects Barnyardgrass (Echinochloa crus-galli) [22]: 5 (0-5 (Death)); Herbicidal effects Common lambquarters (Common lambsquarters [23]): 4 (6-10 (Severe damages)); Herbicidal effects Foxtail meadow (Foxtail meadow [24]): 5 (0-5 (Death)); Herbicidal effects Redroot Pigweed (Redroot Pigweed [25]): 5 (0-5 (Death))
COc1cc(OC)nc(Oc2cccnc2C=O)n1 [Compound No. 1, 4,6-dimethoxy-2-(2-formyl-3-pyridyloxy)pyrimidine]	0 (91-100 (No damages))	0 (91-100 (No damages))	0 (91-100 (No damages))	5 (0-5 (Death))	5 (0-5 (Death))	4 (6-10 (Severe damages))	1 (71-90 (Slight damages))	1 (71-90 (Slight damages))	2 (41-70 (Small damages))	4 (6-10 (Severe damages))	3 (11-40 (Medium damages))	3 (11-40 (Medium damages))	2 (41-70 (Small damages))	3 (11-40 (Medium damages))	3 (11-40 (Medium damages))	1 (71-90 (Slight damages))	0 (91-100 (No damages))	0 (91-100 (No damages))	4 (6-10 (Severe damages))	5 (0-5 (Death))	Herbicidal effects Foxtail (Setaria viridis) [21]: 5 (0-5 (Death)); Herbicidal effects Barnyardgrass (Echinochloa crus-galli) [22]: 5 (0-5 (Death)); Herbicidal effects Common lambquarters (Common lambsquarters [23]): 5 (0-5 (Death)); Herbicidal effects Foxtail meadow (Foxtail meadow [24]): 5 (0-5 (Death)); Herbicidal effects Redroot Pigweed (Redroot Pigweed [25]): 5 (0-5 (Death))
COc1cc(OC)nc(Oc2cccnc2C(OC)OC(C)C)n1 (stereo not drawn) [Compound No. 5, 3-(4.6-dimethoxy-2-pyrimidinyloxy)-2-pyridinecarboxaldehyde isopropylmethylacetal]	0 (91-100 (No damages))	0 (91-100 (No damages))	0 (91-100 (No damages))	5 (0-5 (Death))	5 (0-5 (Death))	5 (0-5 (Death))	0 (91-100 (No damages))	0 (91-100 (No damages))	4 (6-10 (Severe damages))	5 (0-5 (Death))	5 (0-5 (Death))	4 (6-10 (Severe damages))	5 (0-5 (Death))	5 (0-5 (Death))	5 (0-5 (Death))	0 (91-100 (No damages))	0 (91-100 (No damages))	0 (91-100 (No damages))	4 (6-10 (Severe damages))	5 (0-5 (Death))	Herbicidal effects Foxtail (Setaria viridis) [21]: 5 (0-5 (Death)); Herbicidal effects Barnyardgrass (Echinochloa crus-galli) [22]: 5 (0-5 (Death)); Herbicidal effects Common lambquarters (Common lambsquarters [23]): 4 (6-10 (Severe damages)); Herbicidal effects Foxtail meadow (Foxtail meadow [24]): 5 (0-5 (Death)); Herbicidal effects Redroot Pigweed (Redroot Pigweed [25]): 5 (0-5 (Death))
